Measurements as given in US12655385B2, “Cell culture compositions with antioxidants and methods for polypeptide production” (Genentech, Inc., priority 2013, dated 2026).
Counter-ions that a name gives are not always drawn.

Key:
[1] = test system: antibody producing CHO cells; assay: 2-liter stirred bioreactor fed-batch cell culture in Media 1/Media 2 with hypotaurine or carboxymethylcysteine; assay type: cell-based, Chinese Hamster; details: for Growth as measured by VCC: 12.95 mM hypotaurine or 10 mM carboxymethylcysteine in Media 1 (FIG. 7A); for cell viability: 12.95 mM hypotaurine or 10 mM carboxymethylcysteine in Media 1 (FIG. 7B); for antibody titer (HPLC): 12.95 mM hypotaurine or 10 mM carboxymethylcysteine in Media 1 (FIG. 8)
Procedure: Antibody producing CHO cells were inoculated at approximately 1.0×10^6 cells/mL in 2-liter stirred bioreactors (Applikon, Foster City, CA) containing 1 L of basal Media 1 supplemented with 12.95 mM hypotaurine or 10 mM carboxymethylcysteine (CAS number 638-23-3). Cells were cultured in fed-batch mode with addition of 100 mL of feed Media 2 per liter of cell culture fluid at days 3, 6 and 9 for initiation of the production phase. A positive control was included by culturing cells in Media 1 and 2 without hypotaurine supplementation. The concentration of glucose was analyzed every day and if the glucose concentration fell below 2 g/L, it was replenished from a […] stock solution of glucose for prevention of glucose depletion. Reactors were equipped with calibrated dissolved oxygen, pH and temperature probes. Dissolved oxygen was controlled on-line through sparging with air and/or oxygen. pH was controlled through addition of CO2 or Na2CO3 and antifoam was added to the cultures as needed. The cell cultures were maintained at pH 7.0 and a temperature of 37° C. from days 0 through 3, and then at 35° C. after day 3. The cell cultures were agitated at 275 rpm and the dissolved oxygen level was at 30% of air saturation. Osmolality was monitored using an osmometer from Advanced Instruments (Norwood, MA). Offline pH and metabolite concentrations were also determined daily using a Nova Bioprofile 400 (Nova Biomedical, Waltham, MA). VCC and cell viability was measured daily using a ViCell® automated cell counter (Beckman Coulter, Fullerton, CA). The cell culture fluid was collected daily by centrifuging 1 mL of cell culture fluid for determination of antibody titer using high performance liquid chromatography. At the end of the cell culture duration on day 14, when the amount of protein in the culture was approximately 2-10 g/L, the cell culture fluid from all samples was harvested by centrifugation. The monoclonal antibody in the harvested cell culture fluid was purified using protein A affinity chromatography. The protein A pool was concentrated to 150 g/L using Amicon Centricon centrifugal filter devices (Millipore Corporation, Billerica, MA). Color intensity of the concentrated antibody composition was measured in the concentrated protein A pool using two different assays wherein higher numerical values indicated higher color intensity and lower numerical values indicated lower color intensity. […] This color intensity reduction was confirmed by using a second color assay which detected an approximate 17% and 13% color intensity reduction in antibody compositions isolated from cell cultured in media supplemented with hypotaurine and carboxymethylcysteine, respectively (FIG. 9B).

IgG1 monoclonal antibody = assay: Antioxidant screening: incubation of Media 1/Media 2 mixture spiked with antibody, color intensity of purified antibody; details: 1X test concentration (hypotaurine 9.16 mM, taurine 5.00 mM), 5 days 37° C.; normalized to positive control
Procedure: For antioxidant screening, a total volume of 40 ml media was prepared by mixing 1 part basal Media 1 and 0.3 part feed Media 2 to mirror a representative ratio of media used in cell culture conditions (Table 5). […] The samples were incubated at 37° C. with shaking at 250 rpm for a five day incubation period.
After incubation, the monoclonal antibody was purified using affinity chromatography. Color intensity of the concentrated antibody composition was measured in the purified pool using an assay wherein higher numerical values indicate higher color intensity and lower numerical values indicate lower color intensity. The numerical results were normalized to the positive control, where the value for the positive control was set at 0% change in color intensity.

monoclonal antibody = assay: Screen of taurine, carnosine and aminoguanidine in culture media, relative color intensity of antibody; details: 27.2 g/L aminoguanidine hydrochloride, 7 days 37° C. 250 rpm (FIG. 10)
Procedure: In order to identify a compound that reduces in antibody compositions and works under cell culture conditions, a screen assay in cell free medium was conducted. Taurine, carnosine and aminoguanidine were chosen for screening. These compounds were dissolved in 25 mL culture media at the concentration of 1.2 g/L (taurine), 13.6 g/L (carnosine), and 27.2 g/L (aminoguanidine hydrochloride). After pH adjustment to a range from 6.8 to 7.2 and sterile filtration with Steriflip filter units (Millipore, Billerica, MA) the solution was incubated in 50 mL Falcon tubes (BD Biosciences, San Jose, CA) equipped with TubeSpin caps (TPP Techno Plastic Products AG, Trasadingen, Switzerland). CHO cells were incubated for 7 days in a moisture controlled cell culture incubator at 37° C. and 250 rpm with no protection from light to produce the monoclonal antibody.
The monoclonal antibody in the harvested cell culture fluid (HCCF) and the incubation broth was further purified with affinity chromatography. Color intensity of the concentrated antibody composition was measured in the purified pool using an assay wherein higher numerical values indicated higher color intensity and lower numerical values indicated lower color intensity.
The relative color intensity for antibodies produced in culture medium containing taurine, carnosine, or aminoguanidine are shown in FIG. 10.

[2] = listed as carboxy methyl cysteine

N[C@@H](CSCC(=O)O)C(=O)O [carboxymethylcysteine, (2R)-2-amino-3-[(carboxymethyl)sulfanyl]propanoic acid]
Growth as measured by VCC [1]: comparable among all cell cultures tested | Growth as measured by VCC [1, 2]: did not compromise | cell viability [1]: comparable among all cell cultures tested | cell viability [1, 2]: did not compromise | antibody titer (HPLC) [1]: comparable levels of antibody titers | antibody titer (HPLC) [1, 2]: did not significantly reduce | color intensity reduction of antibody compositions, second color assay ([1]; 12.95 mM hypotaurine or 10 mM carboxymethylcysteine, protein A pool concentrated to 150 g/L (FIG. 9B)): ~13%

NCCS(=O)(=O)O [Taurine, 2-aminoethane-1-sulfonic acid]
reduction of color intensity of the antibody-containing compositions (IgG1 monoclonal antibody): approximately 5%

N=C(N)NN [aminoguanidine, aminoguanidine hydrochloride]
decrease of color (monoclonal antibody): about 71%
